Results reported in US20180250306A1, “ALDEHYDE CONJUGATES AND USES THEREOF” (ALDEYRA THERAPEUTICS, INC., priority 2015, published 2018).

What was measured:
IL-1β = assay: Western Blot of IL-1β levels in cardiac fibroblasts; format: cell-based, neonatal rats; details: p<0.01
Experimental: (§1) Thirty hearts from neonatal rats were minced and digested (Neonatal Cardiomyocyte Isolation System, LK003303, Worthington). After tissue digestion and cell dissociation, cell suspensions were plated into 35 mm dishes or onto coverslips in wells of 24-well plates. Serum-free DMEM was added to the cell suspensions and the cells allowed to adhere for 2 hrs. After two hours, the cell suspension was removed and the adherent cells were fed with DMEM containing 10% fetal bovine serum (FBS). Cells were maintained in DMEM+10% FBS for 24 hours before treatments. Treatment duration was 24 hours.
(§2) Cell samples were divided in to 2 groups, stimulated with H2O2 or not stimulated with H2O2. […] The cells that were treated with H2O2 contained a final concentration of 0.001% in the wells. Drug was dissolved in 9.5% Captisol®, to a stock concentration of 5 mg/ml. […] Cells were treated for 24 hours then either fixed for immunostaining or collected as lysates for Western Blot analysis.
(§3) Whole cell lysates were used for Western blotting; nuclear and cytosolic fractions were not prepared. DMEM from cells plated in 35 mm plates was removed, the cells rinsed quickly in PBS, then incubated in 500 ul cold RIPA buffer for 20-30 minutes at 4° C. under gentle rocking. Following RIPA incubation, cells were scraped from the dish using cell scrapers and frozen at −80° C. overnight to increase cell lysing. […]

NFκB = assay: Western Blot of NFκB levels in cardiac fibroblasts; format: cell-based, neonatal rats
Experimental: as §1, §2, §3

α-SMA = assay: Western Blot of α-SMA in cardiac fibroblasts; format: cell-based, neonatal rats; details: for α-SMA level (Western Blot): H2O2 stimulated cardiac fibroblasts
Experimental: as §1, §2
Whole cell lysates were used for Western blotting; nuclear and cytosolic fractions were not prepared. DMEM from cells plated in 35 mm plates was removed, the cells rinsed quickly in PBS, then incubated in 500 ul cold RIPA buffer for 20-30 minutes at 4° C. under gentle rocking. Following RIPA incubation, cells were scraped from the dish using cell scrapers and frozen at −80° C. overnight to increase cell lysing. Once thawed, cells were sonicated for 1 minute at 80% maximal power (Biologics Model 150 B/T). Samples were centrifuged at 13K for 10 min at 4° C. then supernatant was separated from pellet for analysis by gel electrophoresis. BCA protein analysis was run to determine total protein, samples normalized to 0.2 ug/uL, and then loaded onto Novex 8% Bolt gels. Gels were run for 35 min at 200 V in MOPS buffer or until the lower molecular weight band reached the bottom of the gel. Protein was then transferred to Hybond 0.45 uM Nitrocellulose (GE Healthcare) for 1 hour. Blots were blocked for 1 hr at room temperature in 5% BSA/TBSt. […]

[1] = Consumption of 4HNE over time (HPLC, 254 nm)
Excerpt: 5 of 6 samples show consumption of 4HNE. One sample (2-(3-aminoquinolin-2-yl)propan-2-ol) overlaps 4HNE HPLC peak using current method. Best fit lines over this period give poorer fit to data than product formation data. Rate of 4HNE consumption can be used as an approximation of binding kinetics. […] The data were used to rank relatively each of the samples examined, including NS-2 but excluding 2-(3-aminoquinolin-2-yl)propan-2-ol.

cardiac fibroblasts = assay: Fibroblast activation to myofibroblast phenotype, immunostaining for α-SMA and vimentin; format: cell-based, neonatal rats
Experimental: as §1, §2
After 24 hours of treatment, cells on cover slips were rinsed twice with PBS, fixed in 1% paraformaldehyde for 10 minutes then rinsed in PBS for immunostaining. Cells were permeabilized for 18 minutes in 0.1% Triton-X 100 in PBS, then rinsed three times in PBS for 15 minutes each. Following the rinses, cover slips were incubated in Image-IT FX Signal Enhancer (Invitrogen) to reduce background intensities in images. Subsequently, cells were washed three times 15 min with PBS, followed by one hour of blocking in 10% Normal Goat Serum Cells and 0.05% Triton-X 100, and then incubated overnight in 4° C. with primary antibodies diluted in PBS with 2% Normal Goat Serum and 0.05% Triton-X 100. Antibodies were applied at the following concentrations: Alpha-Smooth Muscle Actin 1:200 (V5228, Sigma-Aldrich), Vimentin 1:200 (V6630, Sigma-Aldrich) and NFκB 1:200 (C-20, Santa Cruz Biotech). Following overnight incubation, cover slips were brought to room temperature over 10 minutes and then rinsed in PBS for 15 min. Following 1 hour of incubation in the dark with secondary antibodies (1:100 in PBS, A-21127 and A-21136, Life Technologies), cover slips were rinsed 3 times for 15 min in PBS, incubated in the dark with DAPI (Invitrogen, 1:600) for 10 minutes, and then rinsed for 3 times in PBS. Cover slips were then mounted upside down on glass slides and examined using a Leica SP8 confocal microscope equipped with a 10× air lens. Images were taken as described and split into channels. Each channel was reviewed by eye to determine if NFκB was in the nucleus or in the cytosol.

[2] = test system: Primary rat cortical cultures; assay: LDH cytotoxicity assay, aldehyde-mediated cell death in neurons; format: cell-based
Experimental: Primary rat cortical cultures are placed in an incubator for 24 or 48 hours and treated with various concentrations of disclosed compounds. Then 20 μL of the culture media is removed for an LDH assay as described in Bergmeyer et al., Methods of Enzymatic Analysis, 3rd ed. (1983).

circulating cytokines [3] = assay: LPS model of inflammation in the mouse, ELISA of circulating cytokines; format: in vivo, mice
Experimental: Male C57BI/6 mice are dosed with disclosed compounds 30 minutes before they are exposed to LPS (20 mg/kg). Two hours after the LPS exposure, blood is collected from the mice and an ELISA is conducted to determine the amount of circulating cytokines. Treatment with disclosed compounds leads to reduction in proinflammatory cytokines, such as IL-5 and IL-1β, IL-17, and TNF. Also, treatment with disclosed compounds results in elevated anti-inflammatory cytokines, such as IL-10.

JNK = assay: Western Blot of MAPK signaling pathways in cardiac fibroblasts; format: cell-based, neonatal rats; details: NS2 treatment at any level; single blot
Experimental: as §1, §2, §3

circulating cytokines [4] = details: LPS model, mouse; cited from earlier work

CC(C)(O)c1nc2ccc(Cl)cc2cc1N [NS2, 2-(3-amino-6-chloroquinolin-2-yl)propan-2-ol]
IL-1β levels (Western Blot) (IL-1β; H2O2-stimulated cells): significant decreases | IL-1β levels (Western Blot) (IL-1β; unstimulated cells): significant decreases | NFκB level (Western Blot, whole cell lysate) (NFκB; H2O2-stimulated cells, 100 μM or 1 mM): significant decreases | NFκB level (Western Blot, whole cell lysate) (NFκB; non-stimulated cells): significantly decreased | α-SMA level (Western Blot) (α-SMA; 10 μM): no significant change | α-SMA level (Western Blot) (α-SMA; increased dose (100 μM, 1 mM), p<0.01): further α-SMA decreases, which were significant | α-SMA level (Western Blot) compared to control (α-SMA; non-stimulated cardiac fibroblasts, 10 μM, 100 μM, 1 mM): significant decreases | Gradient of 4HNE consumption ([1]; 23 h): (Gradient −0.04, | Gradient of 4HNE consumption ([1]; first 7 h, analysis at 254 nm): (Gradient −0.15, | Consumption of 4HNE, ranking, 7 Hours ([1]; rank from most effective (1) to least): 1 | Consumption of 4HNE, ranking, 23 Hours ([1]; rank from most effective (1) to least, ranks 1-4 essentially identical): 3 | cell morphology (cardiac fibroblasts; 1 mM, cells stimulated with H2O2 or not): morphology of a non-activated fibroblast | α-SMA production and morphology change (immunostaining) (cardiac fibroblasts; H2O2 stimulated cells, 10 μM, 24 hours): little effect | α-SMA production (immunostaining) (cardiac fibroblasts; H2O2 stimulated cells, 100 μM, 24 hours): clear inhibition | cell shape of activated myofibroblasts (cardiac fibroblasts; unstimulated cells, 10 μM): does not change | α-SMA production (immunostaining) (cardiac fibroblasts; unstimulated cells, 10 μM, 24 hours): little effect | cell morphology (cardiac fibroblasts; unstimulated cells, 100 μM): morphology more like that of a non-activated fibroblast | α-SMA production (immunostaining) (cardiac fibroblasts; unstimulated cells, 100 μM, 24 hours): inhibited the production of α-SMA | α-SMA production (immunostaining) (cardiac fibroblasts; unstimulated cells, 1 mM, 24 hours): appeared to limit the production of α-SMA | aldehyde-mediated cell death in neurons [2]: prevent | pro-inflammatory cytokines (circulating cytokines [3]; such as IL-5, IL-1β, IL-17, TNF): downregulate | anti-inflammatory cytokines (circulating cytokines [3]; such as IL-10): upregulate | JNK-pJNK (Western Blot) (JNK): no changes | activation of IL-1β (circulating cytokines [4]): significantly decreased | activation of IL-17 (circulating cytokines [4]): significantly decreased | activation of TGF-β (circulating cytokines [4]): significantly decreased | levels of the anti-inflammatory cytokine Interleukin 10 (IL-10) (circulating cytokines [4]): significantly increasing
